Test results from US20240279241A1, “PYRIDO[4,3-D]PYRIMIDINE COMPOUNDS CAPABLE OF INHIBITING KRAS MUTANT PROTEINS” (Redx Pharma PLC, priority 2021, published 2024).
pIC50: −log10 of the molar value. Read-outs that look alike come from different tables or passages of the source.

Assays:
KRAS WT = target: T1, KRAS WT (Homo sapiens, UniProt P01116); test: HTRF nucleotide exchange assay (NEA), KRAS WT; format: biochemical
T1 construct: Recombinant human RAS protein (2 nM); aa1-188 KRAS WT
Protocol: (§1) The capacity of compounds to bind KRAS G12D, other KRAS mutants and wildtype RAS isoforms was quantified using a HTRF nucleotide exchange assay. Recombinant human RAS protein (2 nM; aa1-188 KRAS WT, HRAS WT, NRAS WT, or KRAS containing the containing the G12D, G13D or Q61H amino acid substitutions, or 4 nM KRAS; aa1-188 containing the G12V, G12C, G12A or G12S amino acid substitution, an N-terminal 6×His-tag and leader sequence), and 2 nM Europium-labeled anti-6×His antibody were mixed in assay buffer (10 mM HEPES pH7.3, 150 mM NaCl, 5 mM MgCl2, 0.05% BSA, 0.0025% NP-40 and 100 mM KF) with various concentrations of compound in a 384-well plate and a volume of 5 uL. After a 60-minute incubation at room temperature, 5 ul of 200 nM EDA-GTP-DY647P1 (diluted in assay buffer) was added to the plate. Following 30-minute incubation at room temperature, time-resolved fluorescence was measured on a PerkinElmer Envision plate reader. DMSO (0.3%) and unlabeled […] (1 μM) or equivalent tool compound were used to generate the Max and Min assay signals, respectively. Data was analysed using a four-parameter logistic model to calculate IC50 values, with at least two independent replicates were performed for each compound.

KRAS G12D = target: T2, KRAS G12D (Homo sapiens, UniProt P01116, G12D); test: HTRF nucleotide exchange assay (NEA), KRAS G12D; format: biochemical; details: recombinant human KRAS G12D aa1-188, 2 nM; lowest class = % inhibition at 10 μM
T2 construct: Recombinant human RAS protein (2 nM)
Protocol: as §1

T2 sequence (P01116 1-188 isoform P01116-2 G12D): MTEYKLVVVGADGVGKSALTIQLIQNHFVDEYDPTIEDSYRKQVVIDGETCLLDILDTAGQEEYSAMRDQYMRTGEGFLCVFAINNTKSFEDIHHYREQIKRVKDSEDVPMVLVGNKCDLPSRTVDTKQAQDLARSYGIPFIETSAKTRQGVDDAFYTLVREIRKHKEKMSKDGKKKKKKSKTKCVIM
T1 sequence (P01116 1-188 isoform P01116-2): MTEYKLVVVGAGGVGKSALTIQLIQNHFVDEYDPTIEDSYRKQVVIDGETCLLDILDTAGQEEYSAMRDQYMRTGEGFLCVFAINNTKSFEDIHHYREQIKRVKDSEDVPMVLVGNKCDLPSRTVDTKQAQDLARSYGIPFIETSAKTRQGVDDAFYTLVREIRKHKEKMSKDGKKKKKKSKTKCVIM

Row | Compound | pIC50 (KRAS WT) | pIC50 (KRAS G12D) | pIC50 (KRAS WT; recombinant human KRAS WT aa1-188, 2 nM, lowest class = % inhibition at 10 μM)
1 | C#Cc1c(F)ccc2cc(O)cc(-c3ncc4c(N5CCNC(=O)CC5)nc(OC[C@@]56CCCN5C[C@H](F)C6)nc4c3F)c12 (relative stereo) [Example 87, 1-[7-(8-ethynyl-7-fluoro-3-hydroxy-1-naphthyl)-8-fluoro-2-[[trans-2-fluoro-1,2,3,5,6,7-hexahydropyrrolizin-8-yl]methoxy]pyrido [4,3-d]pyrimidin-4-yl]-1,4-diazepan-5-one] | ≥ 8.00 | ≥ 8.00 | –
2 | Nc1nc2c(-c3ncc4c(N5CCCOCC5)nc(OC[C@@]56CCCN5C[C@H](F)C6)nc4c3F)cccc2s1 (relative stereo) [Example 94, 4-[8-fluoro-4-(1,4-oxazepan-4-yl)-2-[[trans-2-fluoro-1,2,3,5,6,7-hexahydropyrrolizin-8-yl]methoxy]pyrido[4,3-d]pyrimidin-7-yl]-1,3-benzothiazol-2-amine] | 5.00 to 7.00 | 5.00 to 7.00 | –
3 | COCCNc1nc(OCC23CCCN2CCC3)nc2c(F)c(-c3cc(O)cc4ccccc34)ncc12 [Example 12] | 5.00 to 7.00 | 5.00 to 7.00 | –
4 | Oc1cc(-c2ncc3c(NC4CCOCC4)nc(OCC45CCCN4CCC5)nc3c2F)c2ccccc2c1 [Example 15, 4-[8-fluoro-2-(1,2,3,5,6,7-hexahydropyrrolizin-8-ylmethoxy)-4-(tetrahydropyran-4-ylamino)pyrido[4,3-d]pyrimidin-7-yl]naphthalen-2-ol] | 5.00 to 7.00 | 5.00 to 7.00 | –
5 | COC1CCN(c2nc(OCC34CCCN3CCC4)nc3c(F)c(-c4cc(O)cc5ccccc45)ncc23)CC1 [Example 21, 4-[8-fluoro-2-(1,2,3,5,6,7-hexahydropyrrolizin-8-ylmethoxy)-4-(4-methoxy-1-piperidyl)pyrido[4,3-d]pyrimidin-7-yl]naphthalen-2-ol] | 5.00 to 7.00 | 5.00 to 7.00 | –
6 | CN(c1nc(OCC23CCCN2CCC3)nc2c(F)c(-c3cc(O)cc4ccccc34)ncc12)C1CCOCC1 [Example 23, 4-[8-fluoro-2-(1,2,3,5,6,7-hexahydropyrrolizin-8-ylmethoxy)-4-[methyl(tetrahydro-pyran-4-yl)amino]pyrido[4,3-d]pyrimidin-7-yl]naphthalen-2-ol] | 5.00 to 7.00 | 5.00 to 7.00 | –
7 | COCCCNc1nc(OCC23CCCN2CCC3)nc2c(F)c(-c3cc(O)cc4ccccc34)ncc12 [Example 29, 4-[8-fluoro-2-(1,2,3,5,6,7-hexahydropyrrolizin-8-ylmethoxy)-4-(3-methoxypropylamino)pyrido[4,3-d]pyrimidin-7-yl]naphthalen-2-ol] | – | 5.00 to 7.00 | 5.00 to 7.00
8 | CC(C)OCCCNc1nc(OCC23CCCN2CCC3)nc2c(F)c(-c3cc(O)cc4ccccc34)ncc12 [Example 30, 4-[8-fluoro-2-(1,2,3,5,6,7-hexahydropyrrolizin-8-ylmethoxy)-4-(3-isopropoxypropyl-amino)pyrido[4,3-d]pyrimidin-7-yl]naphthalen-2-ol] | 5.00 to 7.00 | 5.00 to 7.00 | –
9 | Oc1cc(-c2ncc3c(NC4CCCCC4)nc(OCC45CCCN4CCC5)nc3c2F)c2ccccc2c1 [Example 35, 4-[4-(cyclohexylamino)-8-fluoro-2-(1,2,3,5,6,7-hexahydropyrrolizin-8-ylmethoxy)pyrido [4,3-d]pyrimidin-7-yl]naphthalen-2-ol] | 5.00 to 7.00 | 5.00 to 7.00 | –
10 | Oc1cc(-c2ncc3c(N4CC5COCC5C4)nc(OCC45CCCN4CCC5)nc3c2F)c2ccccc2c1 (stereo not drawn) [Example 37, 4-[4-(1,3,3a,4,6,6a-hexahydrofuro[3,4-c]pyrrol-5-yl)-8-fluoro-2-(1,2,3,5,6,7-hexahydropyrrolizin-8-ylmethoxy)pyrido [4,3-d]pyrimidin-7-yl]naphthalen-2-ol] | 5.00 to 7.00 | 5.00 to 7.00 | –
11 | OCCCNc1nc(OCC23CCCN2CCC3)nc2c(F)c(-c3cc(O)cc4ccccc34)ncc12 [Example 39, 4-[8-fluoro-2-(1,2,3,5,6,7-hexahydropyrrolizin-8-ylmethoxy)-4-(3-hydroxypropylamino)pyrido[4,3-d]pyrimidin-7-yl]naphthalen-2-ol] | 5.00 to 7.00 | 5.00 to 7.00 | –
12 | CN(C)C(=O)CCNc1nc(OCC23CCCN2CCC3)nc2c(F)c(-c3cc(O)cc4ccccc34)ncc12 [Example 40, 3-[[8-fluoro-2-(1,2,3,5,6,7-hexahydropyrrolizin-8-ylmethoxy)-7-(3-hydroxy-1-naphthyl)pyrido[4,3-d]pyrimidin-4-yl]amino]-N,N-dimethyl-propanamide] | 5.00 to 7.00 | 5.00 to 7.00 | –
13 | COC1CCCN(c2nc(OCC34CCCN3CCC4)nc3c(F)c(-c4cc(O)cc5ccccc45)ncc23)C1 (stereo not drawn) [Example 42, 4-[8-fluoro-2-(1,2,3,5,6,7-hexahydropyrrolizin-8-ylmethoxy)-4-(3-methoxy-1-piperidyl)pyrido[4,3-d]pyrimidin-7-yl]naphthalen-2-ol] | 5.00 to 7.00 | 5.00 to 7.00 | –
14 | COCC(C)(C)CNc1nc(OCC23CCCN2CCC3)nc2c(F)c(-c3cc(O)cc4ccccc34)ncc12 [Example 43, 4-[8-fluoro-2-(1,2,3,5,6,7-hexahydropyrrolizin-8-ylmethoxy)-4-[(3-methoxy-2,2-dimethyl-propyl)amino]pyrido [4,3-d]pyrimidin-7-yl]naphthalen-2-ol] | 5.00 to 7.00 | 5.00 to 7.00 | –
15 | COCCC(C)Nc1nc(OCC23CCCN2CCC3)nc2c(F)c(-c3cc(O)cc4ccccc34)ncc12 (stereo not drawn) [Example 44, 4-[8-fluoro-2-(1,2,3,5,6,7-hexahydropyrrolizin-8-ylmethoxy)-4-[(3-methoxy-1-methyl-propyl)amino]pyrido [4,3-d]pyrimidin-7-yl]naphthalen-2-ol] | 5.00 to 7.00 | 5.00 to 7.00 | –
16 | Oc1cc(-c2ncc3c(N4CCC5(CCOC5)C4)nc(OCC45CCCN4CCC5)nc3c2F)c2ccccc2c1 (stereo not drawn) [Example 48, 4-[8-fluoro-2-(1,2,3,5,6,7-hexahydropyrrolizin-8-ylmethoxy)-4-(2-oxa-7-azaspiro[4.4]nonan-7-yl)pyrido [4,3-d]pyrimidin-7-yl]naphthalen-2-ol] | 5.00 to 7.00 | 5.00 to 7.00 | –
17 | Oc1cc(-c2ncc3c(N4CC5COCC(C5)C4)nc(OCC45CCCN4CCC5)nc3c2F)c2ccccc2c1 [Example 49, 4-[8-fluoro-2-(1,2,3,5,6,7-hexahydropyrrolizin-8-ylmethoxy)-4-(3-oxa-7-azabicyclo[3.3.1]nonan-7-yl)pyrido[4,3-d]pyrimidin-7-yl]naphthalen-2-ol] | 5.00 to 7.00 | 5.00 to 7.00 | –
18 | Oc1cc(-c2ncc3c(N4CC5(CCCOC5)C4)nc(OCC45CCCN4CCC5)nc3c2F)c2ccccc2c1 [Example 53, 4-[8-fluoro-2-(1,2,3,5,6,7-hexahydropyrrolizin-8-ylmethoxy)-4-(6-oxa-2-azaspiro[3.5]nonan-2-yl)pyrido[4,3-d]pyrimidin-7-yl]naphthalen-2-ol] | 5.00 to 7.00 | 5.00 to 7.00 | –
19 | COC(C)(C)CCNc1nc(OCC23CCCN2CCC3)nc2c(F)c(-c3cc(O)cc4ccccc34)ncc12 [Example 54, 4-[8-fluoro-2-(1,2,3,5,6,7-hexahydropyrrolizin-8-ylmethoxy)-4-[(3-methoxy-3-methyl-butyl)amino]pyrido [4,3-d]pyrimidin-7-yl]naphthalen-2-ol] | 5.00 to 7.00 | 5.00 to 7.00 | –
20 | Oc1cc(-c2ncc3c(N4CCn5nccc5C4)nc(OCC45CCCN4CCC5)nc3c2F)c2ccccc2c1 [Example 57, 4-[4-(6,7-dihydro-4H-pyrazolo[1,5-a]pyrazin-5-yl)-8-fluoro-2-(1,2,3,5,6,7-hexahydropyrrolizin-8-ylmethoxy)pyrido [4,3-d]pyrimidin-7-yl]naphthalen-2-ol] | 5.00 to 7.00 | 5.00 to 7.00 | –
21 | Oc1cc(-c2ncc3c(N4CCn5cncc5C4)nc(OCC45CCCN4CCC5)nc3c2F)c2ccccc2c1 [Example 58, 4-[4-(6,8-dihydro-5H-imidazo[1,5-a]pyrazin-7-yl)-8-fluoro-2-(1,2,3,5,6,7-hexahydropyrrolizin-8-ylmethoxy)pyrido [4,3-d]pyrimidin-7-yl]naphthalen-2-ol] | 5.00 to 7.00 | 5.00 to 7.00 | –
22 | Oc1cc(-c2ncc3c(N4CCn5ccnc5C4)nc(OCC45CCCN4CCC5)nc3c2F)c2ccccc2c1 [Example 60, 4-[4-(6,8-dihydro-5H-imidazo[1,2-a]pyrazin-7-yl)-8-fluoro-2-(1,2,3,5,6,7-hexahydropyrrolizin-8-ylmethoxy)pyrido [4,3-d]pyrimidin-7-yl]naphthalen-2-ol] | 5.00 to 7.00 | 5.00 to 7.00 | –
23 | Oc1cc(-c2ncc3c(N4CCc5[nH]ncc5C4)nc(OCC45CCCN4CCC5)nc3c2F)c2ccccc2c1 [Example 61, 4-[8-fluoro-2-(1,2,3,5,6,7-hexahydropyrrolizin-8-ylmethoxy)-4-(1,4,6,7-tetrahydropyrazolo [4,3-c]pyridin-5-yl)pyrido[4,3-d]pyrimidin-7-yl]naphthalen-2-ol] | 5.00 to 7.00 | 5.00 to 7.00 | –
24 | Oc1cc(-c2ncc3c(N4CCc5cn[nH]c5C4)nc(OCC45CCCN4CCC5)nc3c2F)c2ccccc2c1 [Example 62, 4-[8-fluoro-2-(1,2,3,5,6,7-hexahydropyrrolizin-8-ylmethoxy)-4-(1,4,5,7-tetrahydropyrazolo [3,4-c]pyridin-6-yl)pyrido[4,3-d]pyrimidin-7-yl]naphthalen-2-ol] | 5.00 to 7.00 | 5.00 to 7.00 | –
